Test results published in patent US20080014264A1, “NOVEL PHARMACEUTICAL COMPOSITIONS COMPRISING LEVETIRACETAM” (UCB, S.A., priority 2006, published 2008).

Key:
[1] = Solubility of the active ingredient; format: physicochemical
From the text: In fact levetiracetam is a very soluble active ingredient, so it is difficult to slow down the release. Moreover another problem consists in the reduction of the release rate, while keeping a reasonable size for a high dose of very soluble active ingredient.

[2] = A. J. Gower et al., Eur. J. Pharmacol., 222, 1992; cited from earlier work

| Structure (SMILES) | solubility [1] | activity in the treatment of epilepsy [2] |
| --- | --- | --- |
| CC[C@@H](C(N)=O)N1CCCC1=O [levetiracetam, (S)-(−)-alpha-ethyl-2-oxo-1-pyrrolidine acetamide] | very soluble |  |
| CC[C@H](C(N)=O)N1CCCC1=O [(R)-(+)-alpha-ethyl-2-oxo-1-pyrrolidine acetamide] |  | completely lacks activity |
